From ChEMBL document CHEMBL1157041, “Support vector machines: development of QSAR models for predicting anti-HIV-1 activity of TIBO derivatives” (Eur J Med Chem, 2010)

Test system: Human immunodeficiency virus 1
Assay: Antiviral activity against HIV1 infected in human MT4 cells assessed as protection against virus-induced cytopathic effect
Format: functional, organism-based
Settings: for IC50: Human immunodeficiency virus 1, MT4; for pIC50: mt4

IC50 [µM] | pIC50 | SMILES
89.1 | – | CCCN1Cc2cccc3[nH]c(=O)n(c23)C[C@@H]1C
43.7 | – | C[C@H]1Cn2c(=O)[nH]c3cccc(c32)CN1CC1CC1
57.5 | – | C/C=C/CN1Cc2cccc3[nH]c(=O)n(c23)C[C@@H]1C
46.8 | – | C=C(C)CN1Cc2cccc3[nH]c(=O)n(c23)C[C@@H]1C
575 | – | C#CCN1Cc2cccc3[nH]c(=O)n(c23)C[C@@H]1C
34.7 | – | C/C=C\CN1Cc2cccc3[nH]c(=O)n(c23)C[C@@H]1C
37.2 | – | C=C(CC)CN1Cc2cccc3[nH]c(=O)n(c23)C[C@@H]1C
28.8 | – | C/C=C(\C)CN1Cc2cccc3[nH]c(=O)n(c23)C[C@@H]1C
123 | – | C[C@H]1Cn2c(=O)[nH]c3cccc(c32)CN1C/C=C\c1ccccc1
13.5 | – | CC1c2cccc3[nH]c(=S)n(c23)[C@@H](C)[C@H](C)N1CC1CC1 (stereo not given in full)
70.8 | – | C=CC(=C)CN1Cc2cccc3[nH]c(=O)n(c23)C[C@@H]1C
61.7 | – | C=C(Br)CN1Cc2cccc3[nH]c(=O)n(c23)C[C@@H]1C
851 | – | COC(=O)CN1Cc2cccc3[nH]c(=O)n(c23)C[C@@H]1C
107 | – | C[C@H]1Cn2c(=O)[nH]c3cccc(c32)CN1Cc1ccco1
50.1 | – | C=CCCN1Cc2cccc3[nH]c(=O)n(c23)C[C@@H]1C
2.19 | – | C[C@@H]1CN(CC2CC2)Cc2cc(Cl)cc3[nH]c(=S)n1c23
12.6 | – | CC(C)=CCN1Cc2cccc3nc(O)n(c23)C[C@@H]1C
0.0251 | – | CC(C)=CCN1Cc2cc(Cl)c(Cl)c3nc(S)n(c23)C[C@@H]1C
1.15 | – | CC(C)=CCN1[C@H](C)Cn2c(=S)[nH]c3cccc(c32)[C@@H]1C
70.8 | – | C=CCN1Cc2cccc3[nH]c(=O)n(c23)C[C@@H]1C
100 | – | CCCCN1Cc2cccc3[nH]c(=O)n(c23)C[C@@H]1C
34.7 | – | C=C(C)CN1Cc2cccc3[nH]c(=O)n(c23)CC1C (stereo not given)
60.3 | – | CCCN1Cc2cccc3[nH]c(=O)n(c23)CC1C (stereo not given)
1.66 | – | CCCN1Cc2cccc3[nH]c(=S)n(c23)CC1C (stereo not given)
31.6 | – | C=C(C)CN1Cc2cccc3[nH]c(=O)n(c23)C(C)C1 (stereo not given)
56.2 | – | CC(C)=CCN1C(C)c2cccc3[nH]c(=O)n(c23)[C@@H](C)[C@H]1C (relative stereo)
2.24 | – | CC(C)=CCN1C(C)c2cccc3[nH]c(=S)n(c23)[C@@H](C)[C@H]1C (relative stereo)
0.0417 | – | CC(C)=CCN1[C@@H](C)Cn2c(=S)[nH]c3cccc(c32)[C@@H]1C (relative stereo)
– | 7.36 | CC(C)=CCN1Cc2cccc3[nH]c(=S)n(c23)C[C@@H]1C (stereo in doubt; 1)
– | 7.01 | CC(C)=CCN1Cc2cccc3[nH]c(=S)n(c23)C[C@@H]1C (stereo in doubt; 81)
